Molecules are shown by their SMILES.

Ki data for 23 compounds are collected here from patent publication US20080076760A1, “2,3,4,5-TETRAHYDRO-1H-1,5-BENZODIAZEPINE DERIVATIVE AND MEDICINAL COMPOSITION” (priority 2004, published 2008).

The target of assay [1] is human vasopressin V1a receptor (Homo sapiens, UniProt P37288). Description: Receptor binding study, [3H]AVP displacement on CHO cell membranes, human V1a. To be noted: [3H]AVP displacement, CHO cell membrane, 25° C., one hour; read-out: Human V1a Ki. Here is the method:
(§1) (ii) Receptor Binding Study
(§2) Assay was performed using 50 mM of Tris-HCl (pH=7.4) (total amount: 250 μL) (buffer composition: containing […] of MgCl2 and 0.1% BSA), and incubation was performed at room temperature (25° C.) for one hour. After incubation, suck filtration was immediately performed and reaction was completed when the membrane sample was collected on a glass fiber filter fitted with the microplate. After the filter was washed with an ice-cold Tris-HCl buffer (50 mM Tris-HCl, 10 mM MgCl2, pH 7.4), radioactivity measurement was performed. Nonspecific binding was determined using nonradioactive-labeled AVP (1 μM).

Assay [2] concerns the target human vasopressin V2 receptor (Homo sapiens, UniProt P30518). Description: Receptor binding study, [3H]AVP displacement on CHO cell membranes, human V2. To be noted: [3H]AVP displacement, CHO cell membrane, 25° C., one hour; read-out: Human V2 Ki. Here is the method:
Preparation of Chinese hamster ovary (Cho) cell which expresses human vasopressin receptor subtype and production of membrane sample of the cell was conducted according to the method of Tahara et al. (Br. J. Pharmacol., 125, 1463-1470, 1998).
as §1
as §2, with “In saturation binding experiment, the membrane sample and [^3H]AVP of several concentrations (0.125 nM to 4.0 nM) were mixed and incubated in microplate wells. In displacement experiment, [^3H]AVP of constant concentrations (0.5 nM to 1.0 nM) and the membrane sample were mixed with Compound A of several concentrations, and incubation was performed. Assay” for “Assay”

Chain of human vasopressin V2 receptor (P30518 whole entry): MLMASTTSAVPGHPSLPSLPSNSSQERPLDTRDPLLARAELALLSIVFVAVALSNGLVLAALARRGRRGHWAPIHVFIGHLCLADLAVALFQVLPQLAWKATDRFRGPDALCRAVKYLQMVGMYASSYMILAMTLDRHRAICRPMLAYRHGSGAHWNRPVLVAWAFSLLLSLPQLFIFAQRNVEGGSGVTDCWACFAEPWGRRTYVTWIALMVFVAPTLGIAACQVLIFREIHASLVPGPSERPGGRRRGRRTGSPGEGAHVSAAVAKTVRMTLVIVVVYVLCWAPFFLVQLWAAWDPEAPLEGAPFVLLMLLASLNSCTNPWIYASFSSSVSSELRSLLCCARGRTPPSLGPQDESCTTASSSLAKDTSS
Chain of human vasopressin V1a receptor (P37288 whole entry): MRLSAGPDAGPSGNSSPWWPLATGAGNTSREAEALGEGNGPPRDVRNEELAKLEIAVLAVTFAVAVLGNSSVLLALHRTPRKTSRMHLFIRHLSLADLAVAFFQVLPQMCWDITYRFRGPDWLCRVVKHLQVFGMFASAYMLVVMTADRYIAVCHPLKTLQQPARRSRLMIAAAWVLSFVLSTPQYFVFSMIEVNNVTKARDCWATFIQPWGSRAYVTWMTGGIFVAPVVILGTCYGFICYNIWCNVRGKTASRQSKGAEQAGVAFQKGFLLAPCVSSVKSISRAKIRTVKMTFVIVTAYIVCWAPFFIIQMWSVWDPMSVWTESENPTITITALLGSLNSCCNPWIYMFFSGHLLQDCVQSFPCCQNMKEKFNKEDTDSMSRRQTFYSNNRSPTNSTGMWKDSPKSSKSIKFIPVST

The term Ki denotes a dissociation constant, usually derived from enzyme kinetics or from competition with a known ligand. On to `C[C@H]1CCN(C(=O)c2ccc(-c3ccc4[nH]ccc4c3)c(OCCCN3CCC(C(N)=O)CC3)c2)c2ccccc2N1` [Example 83, 1-[3-[2-(1H-indol-5-yl)-5-[[(4S)-4-methyl-2,3,4,5-tetrahydro-1H-1,5-benzodiazepin-1-yl]carbonyl]phenoxy]propyl]-4-piperidine carboxamide], for which the Ki came to 0.13 nM in assay [1] and 17 nM in assay [2].

For `COCCN(CCCOc1cc(C(=O)N2CC[C@H](C)Nc3ccccc32)ccc1-c1ccc2[nH]ccc2c1)CCOC` [Example 84], the Ki in assay [1] came out at 0.1 nM; in assay [2], 6.5 nM.

As for `CC(C)N(C)CCCOc1cc(C(=O)N2CC[C@H](C)Nc3ccccc32)ccc1-c1ccc2[nH]ccc2c1` [Example 85, N-[3-[2-(1H-indol-5-yl)-5-[[(4S)-4-methyl-2,3,4,5-tetrahydro-1H-1,5-benzodiazepin-1-yl]carbonyl]phenoxy]propyl]-N-isopropyl-N-methylamine], the Ki in assay [1] is 0.052 nM; in assay [2], 7.7 nM.

In the case of `C[C@H]1CCN(C(=O)c2ccc(-c3ccc4[nH]ccc4c3)c(OCCCN3CCC(NC=O)CC3)c2)c2ccccc2N1` [Example 87, 1-[3-[2-(1H-indol-5-yl)-5-[[(4S)-4-methyl-2,3,4,5-tetrahydro-1H-1,5-benzodiazepin-1-yl]carbonyl]phenoxy]propyl]-4-piperidinylformamide], the Ki in assay [1] worked out at 0.086 nM; in assay [2] it was 8.7 nM.

For `C[C@H]1CCN(C(=O)c2ccc(-c3ccc4[nH]ccc4c3)c(OCCCN3CCC[C@H]3C(N)=O)c2)c2ccccc2N1` [Example 88, (2S)-1-[3[2-(1H-indol-5-yl)-5-[[(4S)-4-methyl-2,3,4,5-tetrahydro-1H-1,5-benzodiazepin-1-yl]carbonyl]phenoxy]propyl]-2-pyrrolidine carboxamide], the results for the Ki in assay [1] and in assay [2] were 0.3 nM and 3 nM, respectively.

In the case of `C[C@H]1CCN(C(=O)c2ccc(-c3ccc4[nH]ccc4c3)c(NC(=O)N3CCOCC3)c2)c2ccccc2N1` [Example 89, N-[2-(1H-indol-5-yl)-5-[[(4S)-4-methyl-2,3,4,5-tetrahydro-1H-1,5-benzodiazepin-1-yl]carbonyl]phenyl]-4-morpholine carboxamide], the inhibition constant Ki in assay [1] is 0.29 nM; in assay [2] it was 19 nM.

For `C[C@H]1CCN(C(=O)c2ccc(-c3ccc4[nH]ccc4c3)c(OCCCN3CCOC3=O)c2)c2ccccc2N1` [Example 92, 3-[3-[2-(1H-indol-5-yl)-5-[[(4S)-4-methyl-2,3,4,5-tetrahydro-1H-1,5-benzodiazepin-1-yl]carbonyl]phenoxy]propyl]-1,3-oxazolidin-2-one], the inhibitory constant (Ki) in assay [1] was found to be 0.21 nM; in assay [2] it was 5.6 nM.

Regarding `C[C@H]1CCN(C(=O)c2ccc(-c3ccc4[nH]ccc4c3)c(CN3CCOCC3)c2)c2ccccc2N1` [Example 94, (4S)-1-[4-(1H-indol-5-yl)-3-(4-morpholinylmethyl)benzoyl]-4-methyl-2,3,4,5-tetrahydro-1H-1,5-benzodiazepine], the inhibition constant Ki in assay [1] turned out to be 0.21 nM; in assay [2], 0.73 nM.

Take `C[C@H]1CCN(C(=O)c2ccc(-c3ccc4[nH]ccc4c3)c(OCCCN3C(=O)CNC3=O)c2)c2ccccc2N1` [Example 97, 3-[3-[2-(1H-indol-5-yl)-5-[[(4S)-4-methyl-2,3,4,5-tetrahydro-1H-1,5-benzodiazepin-1-yl]carbonyl]phenoxy]propyl]-2,4-imidazolidinedion]: the Ki turned out to be 0.13 nM in assay [1] and 0.39 nM in assay [2].

Turning to `CC(C)N1CCN(CCCOc2cc(C(=O)N3CC[C@H](C)Nc4ccccc43)ccc2-c2ccc3[nH]ccc3c2)CC1` [Example 99, (4S)-1-[4-(1H-indol-5-yl)-3-[3-(4-isopropyl-1-piperazinyl)propoxy]benzoyl]-4-methyl-2,3,4,5-tetrahydro-1H-1,5-benzodiazepine], the Ki in assay [1] worked out at 0.3 nM; in assay [2], 3.4 nM.

`C[C@H]1CCN(C(=O)c2ccc(-c3ccc4[nH]ccc4c3)c(OCCCN3C(=O)CSC3=O)c2)c2ccccc2N1` [Example 100, 3-[3-[2-(1H-indol-5-yl)-5-[[(4S)-4-methyl-2,3,4,5-tetrahydro-1H-1,5-benzodiazepin-1-yl]carbonyl]phenoxy]propyl]-1,3-thiazolidine-2,4-dione]: the Ki in assay [1] turned out to be 0.46 nM; in assay [2] it was 3.2 nM.

Turning to `C[C@H]1CCN(C(=O)c2ccc(-c3ccc4[nH]ccc4c3)c(C(=O)N3CCN(C)CC3)c2)c2ccccc2N1` [Example 102, (4S)-1-[4-(1H-indol-5-yl)-3-[(4-methyl-1-piperazinyl)carbonyl]benzoyl]-4-methyl-2,3,4,5-tetrahydro-1H-1,5-benzodiazepine], the inhibition constant (Ki) is 0.25 nM in assay [1] and 61 nM in assay [2].

For `C[C@H]1CCN(C(=O)c2ccc(-c3ccc4[nH]ccc4c3)c(OCCCCN3CCN(C)CC3)c2)c2ccccc2N1` [Example 103], the inhibitory constant (Ki) in assay [1] was found to be 0.24 nM; in assay [2], 3.6 nM.

Regarding `Cc1ccc2c(c1)NC(C)CCN2C(=O)c1ccc(-c2ccc3[nH]ccc3c2)c(OCCN2CCOCC2)c1` (stereo not shown) [Example 104, 5-[(4,7-dimethyl-2,3,4,5-tetrahydro-1H-1,5-benzodiazepin-1-yl]carbonyl]-2-(1H-indol-5-yl)phenyl 2-(4-morpholinyl)ethyl ether], the Ki in assay [1] stood at 0.35 nM; in assay [2] it was 3.5 nM.

With `CCCN(C)CCCOc1cc(C(=O)N2CC[C@H](C)Nc3ccccc32)ccc1-c1ccc(NC)cc1` [Example 105, N-methyl-2′-[3-[methyl(propyl)amino]propoxy]-4′-[[(4S)-4-methyl-2,3,4,5-tetrahydro-1H-1,5-benzodiazepin-1-yl]carbonyl][1,1′-biphenyl]-4-amine], the inhibition constant Ki in assay [1] was found to be 0.16 nM; in assay [2], 54 nM.

Consider `CNc1ccc(-c2ccc(C(=O)N3CC[C@H](C)Nc4ccccc43)cc2OCCCN2C(=O)CNC2=O)cc1` [Example 106, 3-[3-[[4′-(methylamino)-4-[[(4S)-4-methyl-2,3,4,5-tetrahydro-1H-1,5-benzodiazepin-1-yl]carbonyl][1,1′-biphenyl]-2-yl]oxy]propyl]-2,4-imidazolidinedion], for which the Ki in assay [1] worked out at 0.14 nM; in assay [2] it was 2 nM.

As to `C[C@H]1CCN(C(=O)c2ccc(-c3ccc4[nH]ccc4c3)c(OCCCN3CCC(N4CCOCC4)CC3)c2)c2ccccc2N1` [Example 107, (4S)-1-[4-(1H-indol-5-yl)-3-[3-[4-(4-morpholinyl)-1-piperidinyl]propoxy]benzoyl]-4-methyl-2,3,4,5-tetrahydro-1H-1,5-benzodiazepine], the figures for the inhibitory constant (Ki) in assay [1] and in assay [2] were 0.13 nM and 33 nM, respectively.

With `CCCCCN(C)CCCOc1cc(C(=O)N2CC[C@H](C)Nc3ccccc32)ccc1-c1ccc2[nH]ccc2c1` [Example 108, N-[3-[2-(1H-indol-5-yl)-5-[[(4S)-4-methyl-2,3,4,5-tetrahydro-1H-1,5-benzodiazepin-1-yl]carbonyl]phenoxy]propyl]-N-methyl-1-pentaneamine], the inhibition constant (Ki) in assay [1] stood at 0.42 nM; in assay [2], 21 nM.

Turning to `C[C@H]1CCN(C(=O)c2ccc(-c3ccc4[nH]ccc4c3)c(OCCCN3CCCN(C)CC3)c2)c2ccccc2N1` [Example 109, (4S)-1-[4-(1H-indol-5-yl)-3-[3-(4-methyl-1,4-diazepane-1-yl)propoxy]benzoyl]-4-methyl-2,3,4,5-tetrahydro-1H-1,5-benzodiazepine], the Ki worked out at 0.13 nM in assay [1] and 7.1 nM in assay [2].

As to `C[C@H]1CCN(C(=O)c2ccc(-c3ccc4[nH]ccc4c3)c(OCCN3CCN(C)CC3)c2)c2ccccc2N1` [Example 110, (4S)-1-[4-(1H-indol-5-yl)-3-[2-(4-methyl-1-piperazinyl)ethoxy]benzoyl]-4-methyl-2,3,4,5-tetrahydro-1H-1,5-benzodiazepine], the Ki in assay [1] worked out at 0.13 nM; in assay [2], 6.5 nM.

Take `C[C@H]1CCN(C(=O)c2ccc(-c3ccc4[nH]ccc4c3)c(OCCCN(C)CCN(C)C)c2)c2ccccc2N1` [Example 112, N1-[3-[2-(1H-indol-5-yl)-5-[[(4S)-4-methyl-2,3,4,5-tetrahydro-1H-1,5-benzodiazepin-1-yl)carbonyl]phenoxy]propyl]-N1,N2,N2-trimethyl-1,2-ethaneamine]: the inhibition constant Ki in assay [1] came to 0.42 nM; in assay [2], 23 nM.

For the compound `CCCN1CCN(CCCOc2cc(C(=O)N3CC[C@H](C)Nc4ccccc43)ccc2-c2ccc3[nH]ccc3c2)CC1` [Example 113, (4S)-1-[4-(1H-indol-5-yl)-3-[3-(4-propyl-1-piperazinyl)propoxy]benzoyl]-4-methyl-2,3,4,5-tetrahydro-1H-1,5-benzodiazepine], the figures for the inhibition constant (Ki) in assay [1] and in assay [2] were 0.26 nM and 5 nM, respectively.

As to `CCCCN(C)CCCOc1cc(C(=O)N2CC[C@H](C)Nc3ccccc32)ccc1-c1ccc2[nH]ccc2c1` [Example 114, N-[3-[2-(1H-indol-5-yl)-5-[[(4S)-4-methyl-2,3,4,5-tetrahydro-1H-1,5-benzodiazepin-1-yl]carbonyl]phenoxy]propyl]-N-methyl-1-butaneamine], the Ki in assay [1] was determined as 0.22 nM; in assay [2] it was 18 nM.
